Read-outs that look alike come from different tables or passages of the source.
How the values were obtained:
FynT enzyme = FynT enzyme (Homo sapiens (Human), UniProt P06241); assay: FynT enzyme activity (IMAP fluorescence polarization assay); type: biochemical; details: 60 min pre-incubation, 0.2 μM ATP
Procedure, shortened: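 Human FynT pre-incubated with compounds 60 min at room temperature, then reacted 2 h at room temperature with fluorescein-labelled p34cdc2 peptide (100 nM final). Stopped with IMAP binding solution; fluorescence polarization read after 60 min. Activity as % of ±ATP control difference; EC50 by curve fitting.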

Btk enzyme (His-Btk) = Btk enzyme (His-Btk) (Homo sapiens (Human), UniProt Q06187); assay: Btk enzyme activity (IMAP fluorescence polarization assay)
Btk enzyme (His-Btk), sequence (Q06187 whole entry): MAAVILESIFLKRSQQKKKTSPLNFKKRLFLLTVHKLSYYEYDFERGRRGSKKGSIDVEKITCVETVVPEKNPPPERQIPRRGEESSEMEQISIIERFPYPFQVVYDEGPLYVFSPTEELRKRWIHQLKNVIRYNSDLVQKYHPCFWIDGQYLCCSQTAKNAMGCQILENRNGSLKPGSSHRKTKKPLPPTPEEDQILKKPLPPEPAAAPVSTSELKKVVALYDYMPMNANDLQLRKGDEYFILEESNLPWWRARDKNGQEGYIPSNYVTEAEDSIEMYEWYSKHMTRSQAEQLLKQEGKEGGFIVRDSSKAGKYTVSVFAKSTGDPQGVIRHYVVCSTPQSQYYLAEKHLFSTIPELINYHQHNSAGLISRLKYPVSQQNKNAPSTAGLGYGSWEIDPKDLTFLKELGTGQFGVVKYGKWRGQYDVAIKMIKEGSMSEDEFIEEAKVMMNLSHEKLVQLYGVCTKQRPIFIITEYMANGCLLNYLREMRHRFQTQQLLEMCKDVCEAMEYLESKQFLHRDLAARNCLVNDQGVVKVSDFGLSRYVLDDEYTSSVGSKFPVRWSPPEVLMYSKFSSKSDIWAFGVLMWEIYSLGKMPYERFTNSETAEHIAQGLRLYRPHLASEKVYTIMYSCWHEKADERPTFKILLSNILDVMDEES
Protocol: Inhibition of kinase activity can be measured using the Immobilized Metal Assay for Phosphochemicals (IMAP) assay. IMAP is a homogeneous fluorescence polarization (FP) assay based on affinity capture of phosphorylated peptide substrates. IMAP uses fluorescein-labeled peptide substrates that, upon phosphorylation by a protein kinase, bind to so-called IMAP nanoparticles, which are derivatized with trivalent metal complexes.
Final peptide substrate concentration in assay is 50 nM.

Lck enzyme = Lck enzyme (Homo sapiens (Human), UniProt P06239); assay: Lck enzyme activity (IMAP fluorescence polarization assay)
Lck enzyme, sequence (P06239 whole entry): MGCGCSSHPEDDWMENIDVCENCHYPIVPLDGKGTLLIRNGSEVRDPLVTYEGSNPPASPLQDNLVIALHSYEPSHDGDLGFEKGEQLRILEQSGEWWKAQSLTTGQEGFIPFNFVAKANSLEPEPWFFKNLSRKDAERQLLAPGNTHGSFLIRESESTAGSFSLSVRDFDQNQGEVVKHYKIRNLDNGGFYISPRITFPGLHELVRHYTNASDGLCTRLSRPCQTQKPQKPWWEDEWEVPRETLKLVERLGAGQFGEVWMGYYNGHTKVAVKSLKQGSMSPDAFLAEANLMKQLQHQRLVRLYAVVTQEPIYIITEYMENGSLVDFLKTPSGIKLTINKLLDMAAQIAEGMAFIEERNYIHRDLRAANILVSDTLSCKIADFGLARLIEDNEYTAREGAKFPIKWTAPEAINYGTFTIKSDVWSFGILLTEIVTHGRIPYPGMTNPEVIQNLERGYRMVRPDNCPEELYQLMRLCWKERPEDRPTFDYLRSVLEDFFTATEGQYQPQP

Src enzyme = Src enzyme (Homo sapiens (Human), UniProt P12931); assay: Src enzyme activity (IMAP fluorescence polarization assay); details: read-out: EC50 Src activity values; IMAP, 60 min pre-incubation, 4 μM ATP
Src enzyme, sequence (P12931 whole entry, looked up): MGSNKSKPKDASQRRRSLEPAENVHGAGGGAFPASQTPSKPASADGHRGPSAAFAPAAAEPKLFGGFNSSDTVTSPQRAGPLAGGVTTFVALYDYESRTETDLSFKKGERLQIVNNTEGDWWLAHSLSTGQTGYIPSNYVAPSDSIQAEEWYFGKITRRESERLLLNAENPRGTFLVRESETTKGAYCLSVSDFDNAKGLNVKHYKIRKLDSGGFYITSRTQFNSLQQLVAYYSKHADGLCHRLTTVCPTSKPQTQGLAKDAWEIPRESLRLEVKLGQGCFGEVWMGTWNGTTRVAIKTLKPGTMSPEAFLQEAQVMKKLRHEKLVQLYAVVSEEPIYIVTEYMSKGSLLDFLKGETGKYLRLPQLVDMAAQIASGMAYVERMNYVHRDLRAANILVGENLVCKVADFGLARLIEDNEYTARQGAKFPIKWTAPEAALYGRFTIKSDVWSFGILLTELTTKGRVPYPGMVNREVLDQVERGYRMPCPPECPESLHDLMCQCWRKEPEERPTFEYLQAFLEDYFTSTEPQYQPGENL

Lyn enzyme = Lyn enzyme (Homo sapiens (Human), UniProt P07948); assay: Lyn enzyme activity (IMAP fluorescence polarization assay)
Lyn enzyme, sequence (P07948 whole entry): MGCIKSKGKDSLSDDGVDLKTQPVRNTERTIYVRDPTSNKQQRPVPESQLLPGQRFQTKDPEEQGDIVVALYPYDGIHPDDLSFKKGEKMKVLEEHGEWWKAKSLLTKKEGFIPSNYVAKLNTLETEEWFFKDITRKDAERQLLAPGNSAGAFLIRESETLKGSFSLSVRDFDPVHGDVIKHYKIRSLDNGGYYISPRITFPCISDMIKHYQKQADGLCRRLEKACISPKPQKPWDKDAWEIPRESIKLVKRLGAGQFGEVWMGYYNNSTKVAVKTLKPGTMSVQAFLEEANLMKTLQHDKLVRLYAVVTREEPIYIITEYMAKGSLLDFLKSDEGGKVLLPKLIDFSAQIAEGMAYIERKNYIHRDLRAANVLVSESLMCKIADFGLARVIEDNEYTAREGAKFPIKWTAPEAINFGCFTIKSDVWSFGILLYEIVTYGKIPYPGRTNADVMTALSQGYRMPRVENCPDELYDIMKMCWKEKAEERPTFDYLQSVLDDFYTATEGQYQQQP

[1] = read-out: EC50 Btk activity values, IMAP, 60 min pre-incubation, 5 μM ATP, bin bound in nM
[2] = read-out: EC50 Lck activity values, IMAP, 60 min pre-incubation, 6 μM ATP, bin bound in μM
[3] = read-out: EC50 Lyn activity values, 60 min pre-incubation, 2 μM ATP, bin bound in μM
[4] = IMAP, 60 min pre-incubation, 5 μM ATP, bin bound in nM

FynT enzyme, sequence (P06241 other isoform, or with tags, fused parts or gaps): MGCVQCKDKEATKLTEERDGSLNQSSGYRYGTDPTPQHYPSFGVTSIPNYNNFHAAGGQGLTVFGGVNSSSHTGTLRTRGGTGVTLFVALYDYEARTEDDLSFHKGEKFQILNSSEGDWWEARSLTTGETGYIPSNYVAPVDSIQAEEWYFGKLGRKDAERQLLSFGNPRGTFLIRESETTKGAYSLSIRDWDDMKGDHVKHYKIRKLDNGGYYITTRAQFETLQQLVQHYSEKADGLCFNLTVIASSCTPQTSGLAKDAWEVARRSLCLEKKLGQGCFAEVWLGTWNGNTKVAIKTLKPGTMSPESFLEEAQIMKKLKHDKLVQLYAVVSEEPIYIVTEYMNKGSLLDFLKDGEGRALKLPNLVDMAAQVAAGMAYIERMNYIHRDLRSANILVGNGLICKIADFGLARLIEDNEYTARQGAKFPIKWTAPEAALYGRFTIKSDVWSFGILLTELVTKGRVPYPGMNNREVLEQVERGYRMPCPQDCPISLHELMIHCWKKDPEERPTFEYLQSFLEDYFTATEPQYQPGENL

| Compound | EC50 (FynT enzyme) | EC50 (Btk enzyme (His-Btk); [1]) | EC50 (Lck enzyme; [2]) | EC50 (Src enzyme) | EC50 (Lyn enzyme; [3]) | EC50 (Btk enzyme (His-Btk)) | EC50 Btk activity values (Btk enzyme (His-Btk); [4]) | EC50 Btk activity values (Btk enzyme (His-Btk); IMAP, 60 min pre-incubation, 5 μM ATP, bin bound in μM) | EC50 (Lck enzyme) | EC50 Lck activity values (Lck enzyme; IMAP, 60 min pre-incubation, 6 μM ATP, bin bound in μM) | EC50 Lyn activity values (Lyn enzyme; 60 min pre-incubation, 2 μM ATP, bin bound in μM) | EC50 (Lyn enzyme; EC50 Lyn activity values, 60 min pre-incubation, 2 μM ATP, bin bound in nM) |
| --- | --- | --- | --- | --- | --- | --- | --- | --- | --- | --- | --- | --- |
| Nc1nccn2c([C@@H]3CCCN3C(=O)C#CC3CC3)nc(-c3ccc(C(=O)Nc4ccccn4)cc3)c12 [Example 35, (S)-4-(8-Amino-3-(1-(3-cyclopropylpropioloyl)pyrrolidin-2-yl)imidazo[1,5-a]pyrazin-1-yl)-N-(pyridin-2-yl)benzamide] | ≥ 1000 nM | < 10 nM | ≥ 1 µM | ≥ 1000 nM | ≥ 1 µM |  |  |  |  |  |  |  |
| CN(C)C/C=C/C(=O)N1CCC[C@H]1c1nc(-c2ccc(C(=O)Nc3cc(F)ccn3)cc2)c2c(N)nccn12 [Example 7, (S,E)-4-(8-Amino-3-(1-(4-(dimethylamino)but-2-enoyl)pyrrolidin-2-yl)imidazo[1,5-a]pyrazin-1-yl)-N-(4-fluoropyridin-2-yl)benzamide] | ≥ 1000 nM |  | ≥ 1 µM | ≥ 1000 nM | ≥ 1 µM | 10 to 100 nM | <100 nM |  |  |  |  |  |
| C=CC(=O)N1CCCC[C@H]1c1nc(-c2ccc(C(=O)Nc3ncccn3)cc2)c2c(N)nccn12 [Example 20, (S)-4-(3-(1-Acryloylpiperidin-2-yl)-8-aminoimidazo[1,5-a]pyrazin-1-yl)-N-(pyrimidin-2-yl)benzamide] | ≥ 1000 nM | < 10 nM | ≥ 1 µM | ≥ 1000 nM | ≥ 1 µM |  |  |  |  |  |  |  |
| CN(C)C/C=C/C(=O)N1CCC[C@H]1c1nc(-c2ccc(C(=O)Nc3nccs3)cc2)c2c(N)nccn12 [Example 15, (S,E)-4-(8-Amino-3-(1-(4-(dimethylamino)but-2-enoyl)pyrrolidin-2-yl)imidazo[1,5-a]pyrazin-1-yl)-N-(thiazol-2-yl)benzamide] | ≥ 1000 nM | < 10 nM | ≥ 1 µM | ≥ 1000 nM | ≥ 1 µM |  |  |  |  |  |  |  |
| CC#CC(=O)N1CCCC[C@H]1c1nc(-c2ccc(C(=O)Nc3cc(C(F)(F)F)ccn3)cc2)c2c(N)nccn12 [Example 63, (S)-4-(8-amino-3-(1-but-2-ynoylpiperidin-2-yl)imidazo[1,5-a]pyrazin-1-yl)-N-(4-(trifluoromethyl)pyridin-2-yl)benzamide] | ≥ 1000 nM | < 10 nM | ≥ 1 µM | ≥ 1000 nM | ≥ 1 µM |  |  |  |  |  |  |  |
| C=CC(=O)N1CCCC[C@H]1c1nc(-c2ccc(C(=O)Nc3cc(CCC)ccn3)cc2)c2c(N)nccn12 [Example 61, (S)-4-(3-(1-acryloylpiperidin-2-yl)-8-aminoimidazo[1,5-a]pyrazin-1-yl)-N-(4-propylpyridin-2-yl)benzamide] | ≥ 1000 nM | < 10 nM | ≥ 1 µM | ≥ 1000 nM | ≥ 1 µM |  |  |  |  |  |  |  |
| CN(C)CC#CC(=O)N1CCC[C@H]1c1nc(-c2ccc(C(=O)Nc3ccccn3)cc2)c2c(N)nccn12 [Example 40, (S)-4-(8-Amino-3-(1-(4-(dimethylamino)but-2-ynoyl)pyrrolidin-2-yl)imidazo[1,5-a]pyrazin-1-yl)-N-(pyridin-2-yl)benzamide] | ≥ 1000 nM |  | ≥ 1 µM | ≥ 1000 nM | ≥ 1 µM | 10 to 100 nM | <100 nM |  |  |  |  |  |
| COC/C=C/C(=O)N1CCCC[C@H]1c1nc(-c2ccc(C(=O)Nc3cccnn3)cc2)c2c(N)nccn12 [Example 72, (S,E)-4-(8-amino-3-(1-(4-methoxybut-2-enoyl)piperidin-2-yl)imidazo[1,5-a]pyrazin-1-yl)-N-(pyridazin-3-yl)benzamide] | ≥ 1000 nM |  | ≥ 1 µM | ≥ 1000 nM | ≥ 1 µM | 100 to 1000 nM |  | <1000 nM |  |  |  |  |
| C=CC(=O)N1CCC[C@H]1c1nc(-c2ccc(C(=O)Nc3cc(-c4ccccc4)ccn3)cc2)c2c(N)nccn12 [Example 133, (S)-4-(3-(1-acryloylpyrrolidin-2-yl)-8-aminoimidazo[1,5-a]pyrazin-1-yl)-N-(4-phenylpyridin-2-yl)benzamide] | ≥ 1000 nM | < 10 nM |  | ≥ 1000 nM |  |  |  |  | 0.1 to 1 µM | <1 µM | <1 µM | 0.1 to 1 µM |
| Cc1ccnc(NC(=O)c2ccc(-c3nc([C@@H]4CCCN4C(=O)/C=C/CN(C)C)n4ccnc(N)c34)cc2)c1 [Example 59, (S,E)-4-(8-amino-3-(1-(4-(dimethylamino)but-2-enoyl)pyrrolidin-2-yl)imidazo[1,5-a]pyrazin-1-yl)-N-(4-methylpyridin-2-yl)benzamide] | ≥ 1000 nM |  | ≥ 1 µM | ≥ 1000 nM | ≥ 1 µM | 10 to 100 nM | <100 nM |  |  |  |  |  |

Source: patent US9758524B2, “4-imidazopyridazin-1-yl-benzamides as Btk inhibitors” (Merck Sharp & Dohme B.V., priority 2011, dated 2017)
